Laboratory results reported in patent US20090142363A1, “CYTOTOXIC T-CELL EPITOPE PEPTIDE AND USE THEREOF” (priority 2005, published 2009).
No end group written: not given here.

What was measured:
Format in all cases: cell-based, human
[1] = system: CTLs with target cells expressing HLA-A*24 molecules; test: Confirmation of CTLs by ELISPOT assay (IFNγ spots); details: FIG. 4
Description: A commercially available ELISPOT assay kit (for example, MABTECH Co.) may be purchased, and the assay can be performed according to the manufacturer's protocol. Alternatively, the assay may also be carried out by the following procedure. 96-well MultiScreen-HA plates (Millipore Co.) were coated with an anti-IFNγ monoclonal antibody (R&D Systems Co.) at 4° C. for overnight. Each well was washed with PBS. Target cells were plated into each well. Any cells expressing HLA-A*24 molecules on their surface can be used as the target cells. For example, T2-A24, a cultured cell which a gene of HLA-A*24 molecule is introduced into a 174CEM.T2 cell, can be used. Alternatively, EBV-infected LCLs expressing HLA-A*24 molecules on their surface can be used as the target cells. These target cells were added into each well with a candidate peptide for adenovirus-specific CTL epitopes or a negative control (HIV) peptide. The mixtures were allowed to stand at room temperature for 30 minutes. Then, an adequate number of CTLs were added, and the mixtures were cultured in a 5% CO2 incubator at 37° C. for 20 hours. CTLs that responded to the candidate epitope peptide secreted IFNγ during this culture period, and the IFNγ bound to the anti-IFNγ monoclonal antibody that was coated on the plates. After culturing was completed, the plates were washed with PBS containing 0.05% Tween-20. Then, an anti-IFNγ polyclonal antibody (Genzyme Co.) and peroxidase-labeled goat anti-rabbit IgG serum were allowed to react in this order at room temperature for 90 minutes each. Furthermore, 3-amino-9-ethylcarbasole (Sigma), a peroxidase substrate, and 0.1M sodium acetate buffer (pH 5.0) containing 0.015% H2O2 was added to each well, and the plates were incubated at room temperature for 40 minutes to visualize the IFNγ spots. The spots were counted under a stereomicroscope.
The spots were counted under a stereomicroscope, and were plotted on a graph.

[2] = system: peripheral blood / PBMCs / peptide-induced CTL lines of HLA-A*24 donors; test: Staining of peripheral blood, PBMCs or peptide-induced CTL lines with MHC-tetramer reagents; set-up: positive rate: CD8-positive, MHC-tetramer reagent-positive cells to viable cells: concentration or dose not given beside the values; details: for MHC-tetramer reagent-positive cells (UL and UR) in IFNγ / tetramer plot, almost none producing IFNγ: HIV peptide added, TYF: donor ID*24-8, VYS: donor ID*24-2; for increase of the positive rate from day 0 to day 10: donor ID*24-8, ten days of culture with the peptide; for amount of specific CTLs (CD8 / MHC-tetramer reagent-positive): TYF: donor ID*24-8, 10 days stimulation, VYS: donor ID*24-2, 27 days
Description: MBL Co. where the present inventors are affiliated with has acquired exclusive patent licensing rights in Japan for MHC-tetramer reagents (U.S. Pat. No. 5,635,363; French Application No. FR9911133; and U.S. Pat. Nos. 5,723,584, 5,874,239, 5,932,433, and 6,265,552) from Beckman Coulter Co. Based on the patents, PE-labeled MHC-tetramer reagents were prepared using adenovirus-specific CTL epitope peptides and HLA-A*2402 molecules.
Adenovirus-specific CTLs quantification was carried out using MHC-tetramer reagents that was prepared using CTL epitope peptides of the present invention, with peripheral blood, PBMCs isolated from peripheral blood, CTL lines induced using CTL epitope peptides as samples. Examples of quantification using PE-labeled MHC-tetramer reagents are described below. Labelling dyes may be used in an appropriate combination depending on the type of flow cytometer to be used, and is not limited to the examples described below.
Ten μl of a PE-labeled MHC-tetramer reagent, 20 μl of an FITC-labeled antibody for T cell (for example, CD8, CD4, or CD3), and such were added to 200 μl of collected peripheral blood. A CD45 antibody labeled with PC5 or such may also be added to eliminate nonspecific fluorescence due to contaminated erythrocytes. After gentle mixing, the mixture was allowed to stand at room temperature for 30 minutes. OptiLyse B was added, and erythrolysis and fixation was carried out according to the manufacturer's protocol. Two ml of PBS was added, stirred, and the cells were centrifuged at 400×g for 5 minutes. After the supernatant was removed by aspiration, the cells were resuspended in 500 μl of PBS and analyzed using a flow cytometer within 24 hours.
Ten μl of a PE-labeled MHC-tetramer reagent, 20 μl of an FITC-labeled T cell surface antibody (for example, CD8, CD4, or CD3), and such were added to an appropriate amount of PBMCs (10^5 to 10^6 cells) or a CTL line induced by use of CTL epitope peptides. A CD45 antibody labeled with PC5 or such may also be added to eliminate nonspecific fluorescence due to contaminated erythrocytes. After gentle mixing, the cells were allowed to stand at room temperature for 30 minutes. Three ml of PBS was added, stirred, and the cells were centrifuged at 400×g for 5 minutes. After the supernatant was removed by aspiration, the cells were resuspended in 500 μl of PBS. When a CTL line is used, 7-AAD Viability Dye (Non-viable cell detection reagent; MBL Co.) may be added to eliminate nonspecific fluorescence caused by non-viable cells. The cells were analyzed using a flow cytometer within 24 hours.
The results of staining obtained using the five types of MHC-tetramer reagents used to prepare the peptide-induced CTL lines are shown in FIG. 5.

[3] = system: CTL line induced by TYF (PBMCs from ID*24-8); test: Cross-reactivity of the TYF-induced CTL line to the subgroup C-specific CTL epitope
Source text: As shown in FIG. 11-4, there are amino acid mutations at the fourth and sixth positions in TYF identified in the present invention as compared to the subgroup C-specific CTL epitopes. Thus, the cross-reactivity to subgroup C-specific CTL epitope ([…] (SEQ ID NO: 14); mutated amino acids are underlined) (Leen A M, Sili U, Vanin E F, Jewell A M, Xie W, Vignali D, Piedra P A, Brenner M K, Rooney C M. Conserved CTL epitopes on the adenovirus hexon protein expand subgroup cross-reactive and subgroup-specific CD8+ T cells. Blood. 104:2432-2440 (2004)) was examined using a CTL line induced by TYF.
PBMCs prepared from ID*24-8 were stimulated with TYF for 13 days, and then restimulated with TYF or […] (SEQ ID NO: 14) to examine whether the CTL line produces IFNγ.

[4] = donor ID*24-8, PBMCs cultured with the epitope peptide for 10 days (day 10)
[5] = donor ID*24-8, immediately after blood collection (day 0)
[6] = restimulation with the specific peptide

| Sequence | IFNγ spots in ELISPOT assay compared with the negative control (HIV) peptide [1] | MHC-tetramer reagent-positive cells (UL and UR) in IFNγ / tetramer plot, almost none producing IFNγ [2] | positive rate: CD8-positive, MHC-tetramer reagent-positive cells to viable cells [2, 4] | positive rate: CD8-positive, MHC-tetramer reagent-positive cells to viable cells [2, 5] | increase of the positive rate from day 0 to day 10 [2] | amount of specific CTLs (CD8 / MHC-tetramer reagent-positive) ([2]; restimulation with HIV peptide) | amount of specific CTLs (CD8 / MHC-tetramer reagent-positive) [2, 6] | cross-reactivity to subgroup C [3] | IFNγ production of the CTL line induced by TYF on restimulation with the named peptide ([3]; PBMCs from ID*24-8 stimulated with TYF for 13 days) | CD8-positive and TYF-Tet-positive cells ([3]; PBMCs from ID*24-8 stimulated with TYF for 13 days, restimulated with the named peptide) |
| --- | --- | --- | --- | --- | --- | --- | --- | --- | --- | --- |
| VYSGSIPYL | IFNγ spots were observed | 8.24% | 0.15% | 0.01% | 15 times | 8.33% | 5.07% | – | – | – |
| TYFNLGNKF [TYF] | IFNγ spots were observed | 1.76% | 1.53% | 0.01% | 153 times | 1.67% | 0.80% | no cross-reactivity | produced IFNγ in a TYF-specific manner | 1.22% |
